Test results published in ChEMBL document CHEMBL1147017, “Synthesis and antiproliferative activity of two new tiazofurin analogues with 2'-amido functionalities” (Bioorg Med Chem Lett, 2006).

Tests used:
Type in all cases: functional, cell-based
[1] = tested on: MRC5; assay: Antiproliferative activity against human MRC5 cell line
[2] = tested on: HeLa; assay: Antiproliferative activity against human HeLa cell line
[3] = tested on: K562; assay: Antiproliferative activity against human K562 cell line
[4] = tested on: HL-60; assay: Antiproliferative activity against human HL60 cell line
[5] = tested on: HT-29; assay: Antiproliferative activity against human HT29 cell line
[6] = tested on: MCF7; assay: Antiproliferative activity against human MCF7 cell line

| SMILES | IC50 [1] | IC50 [2] | IC50 [3] | IC50 [4] | IC50 [5] | IC50 [6] |
| --- | --- | --- | --- | --- | --- | --- |
| CCCCCC(=O)N[C@@H]1[C@H](O)[C@@H](CO)O[C@H]1c1nc(C(N)=O)cs1 | > 100 µM | 8.75 µM | > 100 µM | > 100 µM | > 100 µM | 0.014 µM |
| CCCCCCCCCCCC(=O)N[C@@H]1[C@H](O)[C@@H](CO)O[C@H]1c1nc(C(N)=O)cs1 | > 100 µM | 3.22 µM | 35.6 µM | 4.82 µM | 0.011 µM | > 100 µM |
| NC(=O)c1csc([C@@H]2O[C@H](CO)[C@@H](O)[C@H]2O)n1 [TIAZOFURIN] | – | – | – | – | – | 7.98 µM |
